Read-outs that look alike come from different tables or passages of the source.
Tested on: Bloodstream form T. b. brucei (Lister 427)
Test: Trypanosoma brucei brucei Alamar Blue assay
Format: cell-based
Experimental: IC50 values against trypanosomes were determined by Alamar Blue assay. […] After this time, 20 μL of resazurin dye (Sigma–Aldrich) solution at 0.49 mM was added. […] Output was plotted using the IC50 determination algorithm of Prism 5.0 software (GraphPad). Three independent experiments were carried out in duplicate for each compound.

[1] = Table 1, Alamar Blue, 48 h + 24 h, all standard deviations less than 2%, read-out: IC50 against Trypanosoma brucei brucei
[2] = Trypanosoma brucei, Table 1, Alamar Blue, 48 h + 24 h, all standard deviations less than 2%, read-out: IC50 against Trypanosoma brucei brucei
[3] = Trypanosoma brucei, values in μM, read-out: IC50 against T. b. brucei
[4] = Trypanosoma brucei, Table S2 (supplement), T. b. brucei activity, read-out: IC50

Compound | IC50 [2] [µM] | IC50 [4] [µM] | further results
2-{[(4-{[(4-{[Imino(4-methoxy-2-pyridinyl)methyl]amino}-1-methyl-1H-pyrrol-2-yl)carbonyl]amino}-1-methyl-1H-pyrrol-2-yl)carbonyl]amino}-5-isopropyl-N-[2-(4-morpholinyl)ethyl]-1,3-thiazole-4-carboxamide [Compound 5] |  |  | IC50 [1]: > 75 µM; IC50 (values in μM, read-out: IC50 against T. b. brucei): > 75 µM
4-(Formylamino)-1-methyl-N-[1-methyl-5-({[1-methyl-5-({[2-(4-morpholinyl)ethyl]amino}carbonyl)-1H-pyrrol-3-yl]amino}carbonyl)-1H-pyrrol-3-yl]-1H-pyrrole-2-carboxamide [Compound 4] |  |  | IC50 [1]: 48 µM
CN(C)CCCNC(=O)c1cc(NC(=O)c2cc(NC(=O)c3cc(NC(=N)c4ccccc4)cn3C)cn2C)cn1C [Compound 1, N-[5-({[5-({[3-(Dimethylamino)propyl]amino}carbonyl)-1-methyl-1H-pyrrol-3-yl]amino}carbonyl)-1-methyl-1H-pyrrol-3-yl]-4-{[imino(phenyl)methyl]amino}-1-methyl-1H-pyrrole-2-carboxamide] | > 75 |  | IC50 [3]: > 75 µM
CC(=N)Nc1cc(C(=O)Nc2cc(C(=O)Nc3cc(C(=O)NCCCN(C)C)n(C)c3)n(C)c2)n(C)c1 [Compound 2, N-[5-({[5-({[3-(Dimethylamino)propyl]amino}carbonyl)-1-methyl-1H-pyrrol-3-yl]amino}carbonyl)-1-methyl-1H-pyrrol-3-yl]-4-(ethanimidoylamino)-1-methyl-1H-pyrrole-2-carboxamide] | > 75 |  | IC50 [3]: > 75 µM
Cn1cc(NC(=O)c2cc(NC(=O)c3cc(NC(=O)c4ccc(Cl)cc4Cl)cn3C)cn2C)cc1C(=O)NCCN1CCOCC1 [Compound 3, 4-[(2,4-Dichlorobenzoyl)amino]-1-methyl-N-[1-methyl-5-({[1-methyl-5-({[2-(4-morpholinyl)ethyl]amino}carbonyl)-1H-pyrrol-3-yl]amino}carbonyl)-1H-pyrrol-3-yl]-1H-pyrrole-2-carboxamide] | 0.4 |  | 
CC(C)n1cc(NC(=O)c2cc(NC(=O)c3cnc(Cl)c(Cl)c3)cn2C)cc1C(=O)Nc1cc(C(=O)NCCCN(C)C)n(C)c1 [Compound 6, 5,6-Dichloro-N-[5-({[5-({[5-({[3-(dimethylamino)propyl]amino}carbonyl)-1-methyl-1H-pyrrol-3-yl]amino}carbonyl)-1-isopropyl-1H-pyrrol-3-yl]amino}carbonyl)-1-methyl-1H-pyrrol-3-yl]nicotinamide] | 4 |  | 
COc1cccc(C(=N)Nc2cc(C(=O)Nc3cc(C(=O)Nc4cc(C(=O)NCCCN(C)C)n(C)c4)n(C(C)C)c3)n(C)c2)c1 [Compound 7, N-[5-({[5-({[3-(Dimethylamino)propyl]amino}carbonyl)-1-methyl-1H-pyrrol-3-yl]amino}carbonyl)-1-isopropyl-1H-pyrrol-3-yl]-4-{[imino(3-methoxyphenyl)methyl]amino}-1-methyl-1H-pyrrole-2-carboxamide] | 27 |  | 
COc1cccc(C(=N)Nc2cc(C(=O)Nc3cc(C(=O)Nc4cc(C(=O)NCCCN5CCOCC5)n(C)c4)n(C)c3)n(C)c2)c1 [Compound 9, 4-{[(4-{[imino(3-methoxyphenyl)methyl]amino}-1-methyl-1H-pyrrol-2-yl)carbonyl]amino}-1-methyl-N-[1-methyl-5-({[3-(4-morpholinyl)propyl]amino}carbonyl)-1H-pyrrol-3-yl]-1H-pyrrole-2-carboxamide] | > 75 |  | IC50 [3]: > 75 µM
COc1cccc(/C=C/c2ccc(C(=O)Nc3cc(C(=O)Nc4nc(C(=O)NCCCN(C)C)c(CCC(C)C)s4)n(C)c3)cc2)c1 [Compound 11, N-[3-(dimethylamino)propyl]-5-isopentyl-2-({[4-({4-[(E)-2-(3-methoxyphenyl)ethenyl]benzoyl}amino)-1-methyl-1H-pyrrol-2-yl]carbonyl}amino)-1,3-thiazole-4-carboxamide] | 0.28 | 0.3 | 
COc1cccc(/C=C/c2cccc(C(=O)Nc3cc(C(=O)Nc4nc(C(=O)NCCCN(C)C)c(CCC(C)C)s4)n(C)c3)c2)c1 [Compound 12, N-[3-(Dimethylamino)propyl]-5-isopentyl-2-({[4-({3-[(E)-2-(3-methoxyphenyl)ethenyl]benzoyl}amino)-1-methyl-1H-pyrrol-2-yl]carbonyl}amino)-1,3-thiazole-4-carboxamide] | 0.18 | 0.28 | 
CC(C)CCc1sc(NC(=O)c2cc(NC(=O)c3cc(/C=C/c4ccc([N+](=O)[O-])cc4)cn3C)cn2C)nc1C(=O)NCCCN(C)C [Compound 13, N-[3-(dimethylamino)propyl]-5-isopentyl-2-[({1-methyl-4-[({1-methyl-4-[(E)-2-(4-nitrophenyl)ethenyl]-1H-pyrrol-2-yl}carbonyl)amino]-1H-pyrrol-2-yl}carbonyl)amino]-1,3-thiazole-4-carboxamide] | 0.21 | 0.18 | 
Cn1cc(NC(=O)c2cc(NC(=O)c3cc4ccccc4cn3)cn2C)cc1C(=O)NCCN1CCOCC1 [Compound 14, N-[1-Methyl-5-({[1-methyl-5-({[2-(4-morpholinyl)ethyl]amino}carbonyl)-1H-pyrrol-3-yl]amino}carbonyl)-1H-pyrrol-3-yl]-3-isoquinolinecarboxamide] | 0.97 | 0.21 | 
CN(C)CCCNC(=O)c1cc(NC(=O)c2cc(NC(=O)c3cc4ccccc4cn3)cn2C)cn1C [Compound 15, N-[5-({[5-({[3-(Dimethylamino)propyl]amino}carbonyl)-1-methyl-1H-pyrrol-3-yl]amino}carbonyl)-1-methyl-1H-pyrrol-3-yl]-3-isoquinolinecarboxamide] | 2.2 | 0.97 | 
Cn1cc(NC(=O)c2cc(NC(=O)c3ccc(/C=C/c4nc5ccccc5o4)cc3)cn2C)cc1C(=O)NCCN1CCOCC1 [Compound 16, 4-({4-[(E)-2-(1,3-benzoxazol-2-yl)ethenyl]benzoyl}amino)-1-methyl-N-[1-methyl-5-({[2-(4-morpholinyl)ethyl]amino}carbonyl)-1H-pyrrol-3-yl]-1H-pyrrole-2-carboxamide] | 0.79 | 2.2 | 
CN(C)CCCNC(=O)c1cc(NC(=O)c2cc(NC(=O)c3cc(NC(=N)c4cc5ccccc5cn4)cn3C)cn2C)cn1C [Compound 17, N-[5-({[3-(dimethylamino)propyl]amino}carbonyl)-1-methyl-1H-pyrrol-3-yl]-4-{[(4-{[imino(3-isoquinolinyl)methyl]amino}-1-methyl-1H-pyrrol-2-yl)carbonyl]amino}-1-methyl-1H-pyrrole-2-carboxamide] | 4.9 |  | 
CC(C)CCc1sc(NC(=O)c2cc(NC(=O)c3cc4ccccc4cn3)cn2C)nc1C(=O)NCCCN(C)C [Compound 18, N-[5-({[4-({[3-(Dimethylamino)propyl]amino}carbonyl)-5-isopentyl-1,3-thiazol-2-yl]amino}carbonyl)-1-methyl-1H-pyrrol-3-yl]-3-isoquinolinecarboxamide] | 0.39 |  | 
Cn1cc(NC(=O)c2cc(NC(=O)c3ccc(/C=C/c4ccc(C(F)(F)F)cc4)cc3)cn2C)cc1C(=O)NCCN1CCOCC1 [Compound 22, 1-methyl-N-[1-methyl-5-({[2-(4-morpholinyl)ethyl]amino}carbonyl)-1H-pyrrol-3-yl]-4-[(4-{(E)-2-[4-(trifluoromethyl)phenyl]ethenyl}benzoyl)amino]-1H-pyrrole-2-carboxamide] | 0.73 |  | 
CC(C)CCc1sc(NC(=O)c2cc(NC(=O)c3ccc(/C=C/c4ccc5ccccc5n4)cc3)cn2C)nc1C(=O)NCCN1CCOCC1 [Compound 23, 5-isopentyl-2-({[1-methyl-4-({4-[(E)-2-(2-quinolinyl)ethenyl]benzoyl}amino)-1H-pyrrol-2-yl]carbonyl}amino)-N-[2-(4-morpholinyl)ethyl]-1,3-thiazole-4-carboxamide] | 0.62 |  | 
Cn1cc(NC(=O)c2cc(NC(=O)c3ccc(/C=C/c4ccncc4)cc3)cn2C)cc1C(=O)NCCN1CCOCC1 [Compound 24, 1-Methyl-N-[1-methyl-5-({[2-(4-morpholinyl)ethyl]amino}carbonyl)-1H-pyrrol-3-yl]-4-({4-[(E)-2-(4-pyridinyl)ethenyl]benzoyl}amino)-1H-pyrrole-2-carboxamide] | 0.38 |  | 
Cn1cc(NC(=O)c2cc(NC(=O)c3cc(NC(=O)c4ccc(Cl)cc4Cl)cn3C)cn2C)cc1C(=O)NCCCN1CCOCC1 [Compound 25, 4-[(2,4-Dichlorobenzoyl)amino]-1-methyl-N-[1-methyl-5-({[1-methyl-5-({[3-(4-morpholinyl)propyl]amino}carbonyl)-1H-pyrrol-3-yl]amino}carbonyl)-1H-pyrrol-3-yl]-1H-pyrrole-2-carboxamide] | 2.3 | 0.79 | 
Cn1cc(NC(=O)c2cc(NC(=O)c3ccc(/C=C/c4ccc(F)cc4)cc3)cn2C)cc1C(=O)NCCN1CCOCC1 [Compound 26, 4-({4-[(E)-2-(4-fluorophenyl)ethenyl]benzoyl}amino)-1-methyl-N-[1-methyl-5-({[2-(4-morpholinyl)ethyl]amino}carbonyl)-1H-pyrrol-3-yl]-1H-pyrrole-2-carboxamide] | 0.71 |  | 
Cn1cc(NC(=O)c2cc(NC(=O)c3ccc(/C=C/c4cccc(F)c4)cc3)cn2C)cc1C(=O)NCCN1CCOCC1 [Compound 27, 4-({4-[(E)-2-(3-fluorophenyl)ethenyl]benzoyl}amino)-1-methyl-N-[1-methyl-5-({[2-(4-morpholinyl)ethyl]amino}carbonyl)-1H-pyrrol-3-yl]-1H-pyrrole-2-carboxamide] | 0.22 |  | 
COc1ccc(/C=C/c2ccc3cc(C(=O)Nc4cc(C(=O)Nc5cc(C(=O)NCCN6CCOCC6)n(C)c5)n(C)c4)ccc3n2)cc1 [Compound 30, 2-[(E)-2-(4-Methoxyphenyl)ethenyl]-N-[1-methyl-5-({[1-methyl-5-({[2-(4-morpholinyl)ethyl]amino}carbonyl)-1H-pyrrol-3-yl]amino}carbonyl)-1H-pyrrol-3-yl]-6-quinolinecarboxamide] | 0.63 |  | 

From article PMC4872591, “An evaluation of Minor Groove Binders as anti-Trypanosoma brucei brucei therapeutics” (European Journal of Medicinal Chemistry, 2016)
